One experiment deals with OXPHOS gene expression. The format is cell-based, mouse. The note with it: Conc 20 μM; for GE-HTS (composite Z-score): normalized score vs mock-treated (DMSO) wells.
A further experiment has as its system mtOXPHOS transcripts. Type of experiment: cell-based, mouse. The following applies: Conc 20 μM; for mitoOX (composite Z-score): normalized score vs mock-treated (DMSO) wells.
A further experiment deals with nuOXPHOS transcripts. Type of experiment: cell-based, mouse. The note with it: Conc 20 μM; for nucOX (composite Z-score): normalized score vs mock-treated (DMSO) wells.
The next experiment concerns C2C12 myotubes. The following applies: Conc 20 μM; for Viability (composite Z-score): normalized score vs mock-treated (DMSO) wells.
Experiment [1] concerns mitochondrial membrane potential. The format is cell-based, mouse. The note with it: Conc 20 μM; for ΔΨm (composite Z-score): normalized score vs mock-treated (DMSO) wells.
Experiment [2] relates to cellular dehydrogenase activity. The following applies: Conc 20 μM; for MTT (composite Z-score): normalized score vs mock-treated (DMSO) wells.
The next experiment relates to cytochrome c. Type of experiment: cell-based, mouse. The following applies: Conc 20 μM; for cyt c (composite Z-score): normalized score vs mock-treated (DMSO) wells.
The subject of the next experiment is reactive oxygen species. Type of experiment: cell-based, mouse. The note with it: Conc 20 μM; for ROS (composite Z-score): normalized score vs mock-treated (DMSO) wells.
Where [3] appears, read: composite Z-score vs mock-treated (DMSO) wells.
Where [4] appears, read: normalized composite Z-score vs mock-treated (DMSO) wells.

Molecules are shown by their SMILES. Like-named read-outs stand apart in the source and are kept apart here.

In the experiment with OXPHOS gene expression (setting [3]), `COC(=O)c1cccc2cc(OC)c(OC)c(OC)c2c1=O` showed a GE-HTS of 0.231. This molecule also displayed a mitoOX in the experiment on mtOXPHOS transcripts (setting [3]) of 0.117. The molecule further showed a nucOX in the experiment with nuOXPHOS transcripts (setting [3]) of 0.287. Further, the Viability in the experiment with C2C12 myotubes (setting [3]) is −0.836. This molecule also came in with a ΔΨm in experiment [1] (setting [3]) of −0.254. Also, the MTT in experiment [2] (setting [3]) is −2.317. The molecule also gave a cyt c in the experiment on cytochrome c (setting [3]) of −0.229. The molecule also yielded an ROS in the experiment with reactive oxygen species (setting [3]) of 0.800.

As for `COc1cc2c(cc1OC)C1(O)C(=O)c3ccc(O)c(C(=O)O)c3OC1CO2` (stereo not drawn), the GE-HTS in the experiment on OXPHOS gene expression (setting [4]) was −0.404. Moreover, in the experiment with mtOXPHOS transcripts (setting [4]), the mitoOX is listed as −0.773. Besides, the nucOX with nuOXPHOS transcripts (setting [4]) is −0.162. Besides, the Viability in the experiment with C2C12 myotubes (setting [4]) worked out at 0.509. Moreover, the ΔΨm in experiment [1] (setting [4]) is on record as −0.494. The MTT in experiment [2] (setting [4]) was −0.976. Also, the cyt c with cytochrome c (setting [4]) was 0.670. In the experiment on reactive oxygen species (setting [4]), this molecule had an ROS of −0.738.

Take `Cc1occc(=O)c1/C=C/O` [2-methyl-3-hydroxyethylenepyran-4-one]: the GE-HTS with OXPHOS gene expression (setting [4]) is reported as −0.128. For the same molecule, in the experiment on mtOXPHOS transcripts (setting [4]), the mitoOX is recorded as −0.305. Also, the nucOX in the experiment with nuOXPHOS transcripts (setting [4]) is on record as −0.012. In the experiment with C2C12 myotubes (setting [4]), the Viability came out at 0.309. In experiment [1] (setting [4]), this molecule had a ΔΨm of −0.608. This molecule also returned an MTT in experiment [2] (setting [4]) of −0.725. For the same molecule, in the experiment on cytochrome c (setting [4]), the cyt c is −0.244. The same molecule displayed an ROS with reactive oxygen species (setting [4]) of 0.234.

`COC(=O)C[C@H]1C(C)(C)C(=O)[C@@H]2CC3=C(CC[C@]4(C)C3=CC(=O)O[C@H]4c3ccoc3)[C@@]1(C)C2=O` [carapin-8 (9)-ene]: the “GE-HTS (composite Z-score)” value with OXPHOS gene expression is on record as 0.121. Further, in the experiment with mtOXPHOS transcripts, the “mitoOX (composite Z-score)” value is 0.284. In the experiment with nuOXPHOS transcripts, the “nucOX (composite Z-score)” value was −0.003. For the same molecule, the “Viability (composite Z-score)” value in the experiment with C2C12 myotubes came to 1.357. Moreover, in experiment [1], the “ΔΨm (composite Z-score)” value is listed as −0.223. In experiment [2], the “MTT (composite Z-score)” value is −1.272. In addition, the “cyt c (composite Z-score)” value in the experiment with cytochrome c was determined as 0.412. In addition, in the experiment with reactive oxygen species, the “ROS (composite Z-score)” value is 0.766.

On to `CCOc1ccc(C(=O)C2=C(O)C(OC)C(O)(OC)C=C2)cc1` (stereo not drawn), for which the “GE-HTS (composite Z-score)” value with OXPHOS gene expression is reported as −1.530. The “mitoOX (composite Z-score)” value with mtOXPHOS transcripts is given as −1.568. Moreover, in the experiment on nuOXPHOS transcripts, the “nucOX (composite Z-score)” value is given as −1.393. In the experiment on C2C12 myotubes, the “Viability (composite Z-score)” value was −0.048. In experiment [1], the “ΔΨm (composite Z-score)” value was determined as 0.089. Besides, the “MTT (composite Z-score)” value in experiment [2] is given as −1.130. Besides, the “cyt c (composite Z-score)” value in the experiment with cytochrome c stood at 0.559. Besides, the “ROS (composite Z-score)” value with reactive oxygen species is −0.264.

As for `Cc1cc(O)c(C=O)c2c1C(=O)Oc1c(C)c(O)c3c(c1O2)C(O)OC3=O` (stereo not drawn) [norstictic acid], the GE-HTS was −0.800 with OXPHOS gene expression (composite Z-score vs DMSO) and 0.518 in the experiment on OXPHOS gene expression (setting [3]). For the same molecule, the mitoOX with mtOXPHOS transcripts (composite Z-score vs DMSO) was −1.023; in the experiment on mtOXPHOS transcripts (setting [3]) it was −0.148. For the same molecule, the nucOX in the experiment with nuOXPHOS transcripts (composite Z-score vs DMSO) is on record as −0.639; in the experiment on nuOXPHOS transcripts (setting [3]), 0.774. Moreover, the Viability with C2C12 myotubes (composite Z-score vs DMSO) was 0.730; in the experiment with C2C12 myotubes (setting [3]) it was −0.899. Also, the ΔΨm in experiment [1] (composite Z-score vs DMSO) is recorded as −0.628; in experiment [1] (setting [3]), 0.903. The figures for the MTT in experiment [2] (composite Z-score vs DMSO) and in experiment [2] (setting [3]) were −0.613 and −0.567, respectively. Moreover, the cyt c is listed as 0.467 in the experiment on cytochrome c (composite Z-score vs DMSO) and 0.471 in the experiment on cytochrome c (setting [3]). Also, the figures for the ROS with reactive oxygen species (composite Z-score vs DMSO) and with reactive oxygen species (setting [3]) were −0.426 and 0.560, respectively.

As to `CC1=CCc2c(cc3oc(C)cc(=O)c3c2O)OC1` [ptaeroxylin], the GE-HTS in the experiment with OXPHOS gene expression (setting [3]) is −0.853. This molecule had a mitoOX in the experiment with mtOXPHOS transcripts (setting [3]) of −0.641. For the same molecule, in the experiment on nuOXPHOS transcripts (setting [3]), the nucOX was −0.907. For the same molecule, the Viability in the experiment on C2C12 myotubes (setting [3]) is given as −0.025. The same molecule displayed a ΔΨm in experiment [1] (setting [3]) of 0.238. Also, the MTT in experiment [2] (setting [3]) is recorded as 0.160. For the same molecule, in the experiment on cytochrome c (setting [3]), the cyt c amounted to 0.599. Moreover, the ROS in the experiment with reactive oxygen species (setting [3]) stood at 0.259.

Regarding `C[C@]12CC[C@H]3[C@@H](CC[C@]4(O)C[C@@H](O)CC[C@]34C(=O)O)[C@@]1(O)CC[C@@H]2C1=CC(=O)OC1` [strophanthidinic acid], the GE-HTS in the experiment with OXPHOS gene expression (setting [4]) is reported as −0.553. Besides, the mitoOX with mtOXPHOS transcripts (setting [4]) is −0.726. The molecule further registered a nucOX in the experiment on nuOXPHOS transcripts (setting [4]) of −0.400. Further, the Viability in the experiment with C2C12 myotubes (setting [4]) was −0.745. In experiment [1] (setting [4]), this molecule had a ΔΨm of −0.875. Moreover, the MTT in experiment [2] (setting [4]) is recorded as −1.651. In addition, the cyt c in the experiment with cytochrome c (setting [4]) is 0.166. Further, the ROS in the experiment on reactive oxygen species (setting [4]) is recorded as −0.059.
